Data as given in patent publication US20170291890A1 (Epizyme, Inc., priority 2014, published 2017).
pIC50: −log10 of the molar value.

Tests used:
KDM4A = target: T1, KDM4A (Homo sapiens, UniProt O75164); experiment: KDM4A Assay (SAMDI mass spectrometry demethylase assay); assay type: biochemical; details: N-terminal His-tagged KDM4A 1-350; class symbols; read-out: 4A IC50
T1 construct: N-terminal His-tagged KDM4A^1-350 was purchased from BPS Biosciences; His (N); purchased BPS Biosciences
T1 sequence (O75164 1-350): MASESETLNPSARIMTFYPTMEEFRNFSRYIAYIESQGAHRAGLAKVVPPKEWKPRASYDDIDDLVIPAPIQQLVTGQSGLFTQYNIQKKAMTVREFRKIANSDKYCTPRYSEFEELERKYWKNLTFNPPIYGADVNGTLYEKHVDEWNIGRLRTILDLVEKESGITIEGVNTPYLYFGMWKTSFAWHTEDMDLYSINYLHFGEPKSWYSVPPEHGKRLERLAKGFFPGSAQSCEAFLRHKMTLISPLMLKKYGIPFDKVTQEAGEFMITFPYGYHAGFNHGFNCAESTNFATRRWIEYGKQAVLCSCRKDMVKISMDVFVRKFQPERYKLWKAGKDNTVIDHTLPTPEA
Experimental: N-terminal His-tagged KDM4A^1-350 was purchased from BPS Biosciences. Peptides were synthesized by BioPeptide and all other reagents were purchased from Sigma-Aldrich at the highest level of purity possible. Assays were performed in a 50 μL volume in 384-well V-bottom polypropylene microplates (Greiner) at 25° C. Optimized 1× assay buffer was 50 mM HEPES (pH=8.0), 100 μM sodium ascorbate, 20 mM NaCl, 10 μM ammonium iron sulfate, 1 mM tris(2-carboxyethyl)phosphine (TCEP), 0.002% Tween-20, and 0.005% BSG. For compound screening, 35 μL of KDM4A^1-350 (final concentration, f.c.=5 nM) was added using a Multidrop Combi and preincubated with 1 μL of test compound (f.c.=10 μM) for 30 minutes and subsequently 15 μL of peptide with the following sequence NH2-ARTKQTAR(Kme2)STGGKAPRKQLA(K-Ahx-Biotin)-amide (f.c.=600 nM) and 2-oxoglutarate (f.c.=5 μM) was added by Multidrop Combi to begin the reaction. Reactions proceeded for 120 minutes and were stopped by the addition of 5 μL of formic acid (f.c.=0.5%) using a Multidrop Combi and then analyzed by SAMDI Tech Inc.
SAMDI Tech analyzed all reactions using self-assembled monoloayer desorption/ionization technology as previously described (Gerard-Levin Z A, Scholle M D, Eisenberg A H, et al.: High-throughput screening of small molecule libraries using SAMDI mass spectrometry. ACS Comb Sci 2011; 13:347-350). Briefly, a 2 μL sample of the stopped demethylase reactions were transferred to a SAMDI array coated with 384 biotin-neutravidin spots using a 384-channel pipet station. The SAMDI arrays were incubated for 1 h in a humidified chamber, followed by washing of the surface with deionized ultra-filtered water (DIUF) and drying under nitrogen. A matrix of 30 mg/ml 2′,4′,6′-Trihydroxyacetophenone monohydrate (THAP) in acetone was applied using a TPP Mosquito 1.2 μL tip by dispensing 50 nL on each of the 384 spots on the array. SAMDI-MS was run using acquisition method ReflectorPositiveUTX. The % conversion of substrate to product was calculated using the AUC of the substrate and product peptide peaks.
An IC50 value was determined by contacting various concentrations of a test compound with one of the KDM4A, KDM4C or KDMSC enzyme constructs and plotting a dose-response curve which associates the amount of inhibition of the enzyme relative to the concentration of the test compound. From the curve, the IC50 value (which represents the concentration of the test compound necessary to inhibit maximal enzymatic activity by 50%) was determined. Additionally, the slope of the linear range of the plotted curve, which indicates the speed with which the curve rises between the minimum and maximum, was calculated.

KDM4C = target: T2, KDM4C (Homo sapiens, UniProt Q9H3R0); experiment: KDM4C Assay (SAMDI mass spectrometry demethylase assay); assay type: biochemical; details: N-terminal GST-tagged KDM4C 2-372; class symbols; read-out: 4C IC50
T2 construct: N-terminal GST-tagged KDM4C^2-372 was purchased from BPS Biosciences; GST (N); purchased BPS Biosciences
T2 sequence (Q9H3R0 2-372): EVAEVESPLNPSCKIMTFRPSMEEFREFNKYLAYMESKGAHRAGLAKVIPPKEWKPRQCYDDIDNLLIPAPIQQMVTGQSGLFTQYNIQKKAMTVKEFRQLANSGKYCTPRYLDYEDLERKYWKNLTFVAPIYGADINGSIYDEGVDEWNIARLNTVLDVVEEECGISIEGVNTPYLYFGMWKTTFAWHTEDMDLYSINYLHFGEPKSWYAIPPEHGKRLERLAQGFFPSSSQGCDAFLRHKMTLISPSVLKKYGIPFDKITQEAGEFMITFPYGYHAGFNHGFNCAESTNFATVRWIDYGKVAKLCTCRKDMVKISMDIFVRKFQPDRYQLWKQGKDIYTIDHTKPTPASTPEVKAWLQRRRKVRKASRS
Outline: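 GST-tagged KDM4C 2-372 (5 nM) preincubated 30 min with compound, then H3K9me3 biotinylated peptide (500 nM) and 2-oxoglutarate (15 μM) added in HEPES pH 8.0 with ascorbate, Fe(II), TCEP; 150 min at 25 °C, formic-acid quench. Conversion by SAMDI mass spectrometry from substrate/product peak AUC; IC50 from dose-response.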

Compound | pIC50 (KDM4A) | pIC50 (KDM4C)
NCCn1nc(-c2ccccc2)cc1Nc1cnccc1C(=O)O [Compound 26] | 5.00 to 6.00 | 5.00 to 6.00
O=C(O)c1ccncc1Nc1cn(CCN2CCC(F)(F)CC2)nc1-c1ccccc1 [Compound 17, 3-((1-(2-(4,4-Difluoropiperidin-1-yl)ethyl)-3-phenyl-1H-pyrazol-4-yl)amino)isonicotinic acid] | 5.00 to 6.00 | 5.00 to 6.00
Cc1n[nH]c(-c2ccccc2)c1Nc1cnccc1C(=O)O [Compound 55, 3-((5-methyl-3-phenyl-1H-pyrazol-4-yl)amino)isonicotinic acid] | 5.00 to 6.00 | 5.00 to 6.00
Cn1ncc(-c2ccc(F)cc2)c1Nc1cnccc1C(=O)O [Compound 8, 3-((4-(4-fluorophenyl)-1-methyl-1H-pyrazol-5-yl)amino) isonicotinic acid] | 5.00 to 6.00 | 5.00 to 6.00
Cn1cc(-c2ccccc2)c(Nc2cnccc2C(=O)O)n1 [Compound 3] | 5.00 to 6.00 | 5.00 to 6.00
N[C@H]1CC[C@H](n2nc(-c3ccccc3)cc2Nc2cnccc2C(=O)O)CC1 [Compound 38, 3-((1-((trans)-4-aminocyclohexyl)-3-phenyl-1H-pyrazol-5-yl)amino)isonicotinic acid] | 4.00 to 5.00 | 4.00 to 5.00
O=C(O)c1ccncc1Nc1c(-c2ccccc2)cnn1CCN1CCC(F)(F)CC1 [Compound 15, 3-((1-(2-(4,4-difluoropiperidin-1-yl)ethyl)-4-phenyl-1H-pyrazol-5-yl)amino)isonicotinic acid] | 4.00 to 5.00 | 4.00 to 5.00
Cn1cc(-c2ccccc2F)c(Nc2cnccc2C(=O)O)n1 [Compound 11, 3-((4-(2-Fluorophenyl)-1-methyl-1H-pyrazol-3-yl)amino) isonicotinic acid] | 6.00 to 7.00 | 6.00 to 7.00
CN(C)CCn1ncc(-c2ccccc2)c1Nc1cnccc1C(=O)O [Compound 65, 3-((1-(2-(dimethylamino)ethyl)-4-phenyl-1H-pyrazol-5-yl)amino)isonicotinic acid] | 5.00 to 6.00 | 5.00 to 6.00
COC(=O)c1ccncc1Nc1cn(C2CCN(C(C)C)CC2)nc1C [Compound 101, methyl 3-((1-(1-isopropylpiperidin-4-yl)-3-methyl-1H-pyrazol-4-yl)amino)isonicotinate] | 4.00 to 5.00 | 4.00 to 5.00
O=C(O)c1ccncc1Nc1nn(CCN2CCC(F)(F)CC2)cc1C1CCCCC1 [Compound 57, 3-((4-cyclohexyl-1-(2-(4,4-difluoropiperidin-1-yl)ethyl)-1H-pyrazol-3-yl)amino)isonicotinic acid] | 6.00 to 7.00 | 6.00 to 7.00
O=C(O)c1ccncc1Nc1cc(-c2ccccc2)nn1C1CCOCC1 [Compound 23, 3-((3-Phenyl-1-(tetrahydro-2H-pyran-4-yl)-1H-pyrazol-5-yl)amino)isonicotinic acid] | 5.00 to 6.00 | 6.00 to 7.00
O=C(O)c1ccncc1Nc1cc(-c2ccccc2)nn1[C@H]1CC[C@@H](O)CC1 [Compound 40, 3-((1-((cis)-4-Hydroxycyclohexyl)-3-phenyl-1H-pyrazol-5-yl)amino)isonicotinic acid] | 5.00 to 6.00 | 5.00 to 6.00
O=C(O)c1ccncc1Nc1cc(-c2ccccc2)nn1-c1ccccc1 [Compound 21, 3-((1,3-Diphenyl-1H-pyrazol-5-yl)amino)isonicotinic acid] | 5.00 to 6.00 | 6.00 to 7.00
Cc1c(Nc2cnccc2C(=O)O)cnn1C1CCNCC1 [Compound 68, 3-((5-methyl-1-(piperidin-4-yl)-1H-pyrazol-4-yl)amino)isonicotinic acid] | 6.00 to 7.00 | 6.00 to 7.00

The remaining lines, values ahead:

pIC50 (KDM4A) | pIC50 (KDM4C) | Compound
6.00 to 7.00 | 7.00 to 9.00 | Cn1ncc(-c2ccccc2F)c1Nc1cnccc1C(=O)O [Compound 12, 3-((4-(2-fluorophenyl)-1-methyl-1H-pyrazol-5-yl)amino) isonicotinic acid]
6.00 to 7.00 | 6.00 to 7.00 | Cn1cc(-c2ccc(F)cc2)c(Nc2cnccc2C(=O)O)n1 [Compound 7, 3-((4-(4-Fluorophenyl)-1-methyl-1H-pyrazol-3-yl)amino) isonicotinic acid]
6.00 to 7.00 | 6.00 to 7.00 | Cc1c(Nc2cnccc2C(=O)O)cnn1C1CCN(CC(F)(F)F)CC1 [Compound 100, 3-(5-methyl-1-(1-(2,2,2-tri-fluoro-ethyl)piperidin-4-yl)-1H-pyrazol-4-ylamino)isonicotinic acid]
6.00 to 7.00 | 5.00 to 6.00 | Cc1nn(C2CCNCC2)cc1Nc1cnccc1C(=O)O [Compound 69, 3-((3-methyl-1-(piperidin-4-yl)-1H-pyrazol-4-yl)amino) isonicotinic acid]
6.00 to 7.00 | 6.00 to 7.00 | Cc1c(-c2ccccc2)nn(C)c1Nc1cnccc1C(=O)O [Compound 53, 3-((1,4-dimethyl-3-phenyl-1H-pyrazol-5-yl)amino)isonicotinic acid]
6.00 to 7.00 | 6.00 to 7.00 | COCCn1nc(-c2ccccc2)cc1Nc1cnccc1C(=O)O [Compound 27, 3-((1-(2-Methoxyethyl)-3-phenyl-1H-pyrazol-5-yl)amino) isonicotinic acid]
6.00 to 7.00 | 6.00 to 7.00 | Cc1c(Nc2cnccc2C(=O)O)cnn1C1CCN(C(C)C)CC1 [Compound 104]
6.00 to 7.00 | 6.00 to 7.00 | O=C(O)c1ccncc1Nc1nn(CCN2CCC(F)(F)CC2)cc1-c1ccc(F)cc1 [Compound 45, 3-((1-(2-(4,4-difluoropiperidin-1-yl)ethyl)-4-(4-fluorophenyl)-1H-pyrazol-3-yl)amino)isonicotinic acid]
6.00 to 7.00 | 6.00 to 7.00 | CCn1nc(-c2ccccc2)cc1Nc1cnccc1C(=O)O [Compound 36, 3-((1-Ethyl-3-phenyl-1H-pyrazol-5-yl)amino)isonicotinic acid]
6.00 to 7.00 | 5.00 to 6.00 | Cn1nc(-c2cccc(Cl)c2)cc1Nc1cnccc1C(=O)O [Compound 25, 3-((3-(3-chlorophenyl)-1-methyl-1H-pyrazol-5-yl)amino) isonicotinic acid]
6.00 to 7.00 | 6.00 to 7.00 | Cn1ncc(-c2ccccc2)c1Nc1cnccc1C(=O)O [Compound 1]
6.00 to 7.00 | 6.00 to 7.00 | O=C(O)c1ccncc1Nc1nn(CCC(F)(F)F)cc1-c1ccncc1 [Compound 74, 3-((4-(pyridin-4-yl)-1-(3,3,3-trifluoropropyl)-1H-pyrazol-3-yl)amino)isonicotinic acid]
6.00 to 7.00 | 6.00 to 7.00 | Cc1c(Nc2cnccc2C(=O)O)cnn1C1CCCN(C)CC1 (stereo not shown) [Compound 112, 3-((5-methyl-1-(1-methylazepan-4-yl)-1H-pyrazol-4-yl)amino)isonicotinic acid]
7.00 to 9.00 | 7.00 to 9.00 | Cc1c(Nc2cnccc2C(=O)O)cnn1Cc1ccccc1 [Compound 33, 3-((1-benzyl-5-methyl-1H-pyrazol-4-yl)amino)isonicotinic acid]
